Experimental data taken from US20230151326A1, “Simplified Compositions and Methods for Generating Neural Stem Cells from Human Pluripotent Stem Cells” (Wisconsin Alumni Research Foundation, priority 2012, published 2023).

Tested on: H9 hESCs
Assay: Flow cytometry of neural markers in H9 hESCs differentiated in neural differentiation media
Assay type: cell-based, human
Conditions: day 9, E6 medium containing 1 μM RA
Experimental: hPSCs were washed once with phosphate-buffered saline (PBS; Invitrogen), incubated with Accutase® (Invitrogen) for 3 min, and collected by centrifugation. hPSCs were then plated onto Matrigel® or VTN-NC at a density of 2×10^5 cells/cm^2 in E8 medium containing 10 μM ROCK inhibitor and cultured overnight. The following morning, cells were changed to E6 medium, E6 containing 10 μM SB431542 (Cellagentech), or E6 containing 10 μM SB431542 and 200 ng/mL recombinant human noggin (R&D Systems) to initiate differentiation. E6 medium is the same formulation as E8 medium but without FGF2 and TGFβ1. Medium was changed every day until cells were utilized for analysis. […]
Cells were harvested from 6- or 12-well plates by washing once with PBS and incubating with Accutase® for 3-5 min. […] After washing twice with PBS containing 0.75% BSA, cells were analyzed on a FACSCanto™ (BD Biosciences) and resultant data were analyzed using Cyflogic software. Positive events were determined by gating the top 1% of the IgG control histograms, and all flow data presented are from biological replicates.
H9 hESCs were seeded at 2×10^5 cells/cm^2 on Matrigel® in E8 medium plus ROCK inhibitor as described above. […] Also, the morphological characteristics of the cells at day 6 were assessed by bright field microscopy. […]

## CC1=C(/C=C/C(C)=C/C=C/C(C)=C/C(=O)O)C(C)(C)CCC1 [retinoic acid]
  SOX1 expression by flow cytometry: up to 62±16%
